# Laboratory results taken from publication PMC2774495 (Cancer chemotherapy and pharmacology, 2009).
# Where two headings read alike, the source gives them in different places.
# Experiments:
# 2C9 = settings: read-out: Ki for inhibition of CYP2C9; in vitro; cited from earlier work
# CYP1A2 = settings: read-out: Ki for inhibition of CYP1A2; in vitro; cited from earlier work
# CYP2A6 [1] = target: T1, CYP2A6 (Homo sapiens, UniProt P11509); test: Inhibition of CYP2A6
# T1 sequence (P11509 1-494): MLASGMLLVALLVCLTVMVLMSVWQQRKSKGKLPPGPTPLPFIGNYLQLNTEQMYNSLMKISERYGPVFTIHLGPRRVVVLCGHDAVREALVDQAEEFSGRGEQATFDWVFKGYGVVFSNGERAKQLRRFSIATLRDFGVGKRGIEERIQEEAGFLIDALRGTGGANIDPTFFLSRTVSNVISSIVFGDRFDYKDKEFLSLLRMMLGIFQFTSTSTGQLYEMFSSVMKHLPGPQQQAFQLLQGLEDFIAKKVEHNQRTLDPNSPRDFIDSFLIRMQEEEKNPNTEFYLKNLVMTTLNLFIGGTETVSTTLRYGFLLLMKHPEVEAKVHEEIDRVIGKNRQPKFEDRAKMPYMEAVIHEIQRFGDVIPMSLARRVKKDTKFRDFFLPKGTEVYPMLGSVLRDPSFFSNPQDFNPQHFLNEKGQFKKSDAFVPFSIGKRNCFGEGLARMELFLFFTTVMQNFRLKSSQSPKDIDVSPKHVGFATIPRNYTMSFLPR
# CYP2C19 [2] = target: T2, CYP2C19 (Homo sapiens, UniProt P33261)
# expressed CYP2C19 [3] = target: T3, expressed CYP2C19 (Homo sapiens, UniProt P33261); settings: read-out: Ki values, expressed CYP2C19; expressed 2C19 52 pmol/ml, S-mephenytoin 10–75 μM, mean ± SE, competitive model
# CYP2B6 [4] = target: T4, CYP2B6 (Homo sapiens, UniProt P20813); test: Inhibition of CYP2B6
# T4 sequence (P20813 1-491): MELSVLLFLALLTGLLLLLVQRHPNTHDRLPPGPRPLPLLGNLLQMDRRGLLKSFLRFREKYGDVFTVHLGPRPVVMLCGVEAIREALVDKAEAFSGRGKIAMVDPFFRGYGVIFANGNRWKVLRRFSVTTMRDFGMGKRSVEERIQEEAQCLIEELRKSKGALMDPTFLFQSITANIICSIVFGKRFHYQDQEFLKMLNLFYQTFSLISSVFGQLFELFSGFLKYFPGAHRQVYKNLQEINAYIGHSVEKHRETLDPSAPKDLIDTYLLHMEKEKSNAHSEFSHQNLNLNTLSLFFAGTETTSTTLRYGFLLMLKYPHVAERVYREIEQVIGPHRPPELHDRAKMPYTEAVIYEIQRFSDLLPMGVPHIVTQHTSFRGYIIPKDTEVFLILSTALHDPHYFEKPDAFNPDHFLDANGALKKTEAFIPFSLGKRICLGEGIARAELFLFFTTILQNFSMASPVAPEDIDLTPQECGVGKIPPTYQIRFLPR
# [5] = cited from earlier work
# expressed CYP2B6 = target: T5, expressed CYP2B6 (Homo sapiens, UniProt P20813); test: Inhibition of expressed CYP2B6; type: biochemical; settings: read-out: Ki values, expressed CYP2B6; expressed CYP2B6 52 pmol/ml, efavirenz 10–75 μM, mean ± SE, competitive model
# T5 sequence (P20813 1-491): T4 sequence (P20813 1-491)
# [6] = rat liver tissues; cited from earlier work
# expressed CYP2C19 [7] = target: T3, expressed CYP2C19; test: biochemical
# CYP2C8 = test: Inhibition of CYP2C8; type: biochemical; settings: human, human liver microsomes, pH 7.4, probe amodiaquine 5 μM (desethylation)
# CYP2A6 [8] = target: T1, CYP2A6; test: in vitro; settings: microsomes, pH 7.4
# [9] = cited from earlier work; remark: listed apart in the source
# CYP2D6 = CYP2D6 (Homo sapiens, UniProt P10635); test: in vitro; settings: microsomes, pH 7.4
# expressed CYP2A6 = target: T6, expressed CYP2A6 (Homo sapiens, UniProt P11509); test: Inhibition of expressed CYP2A6; type: biochemical
# T6 sequence (P11509 1-494): T1 sequence (P11509 1-494)
# [10] = cited from earlier work; remark: listed apart in the source
# CYP2B6 [11] = target: T4, CYP2B6; test: in vitro; settings: microsomes, pH 7.4
# CYP2A6 [12] = target: T1, CYP2A6; test: Prediction of in vivo AUC change of CYP2A6 substrates from in vitro Ki; settings: for AUCI/AUCUI ratio expected in vivo, CYP2A6, free letrozole: unbound letrozole (fu 0.2–0.4)
# CYP2C19 [13] = target: T2, CYP2C19; test: biochemical
# CYP isoforms = test: Assessment of time-dependent inactivation; type: biochemical, human; settings: preincubation 0 and 15 min with HLM and cofactors, data not shown
# CYP3A = test: Inhibition of CYP3A; type: biochemical; settings: human, human liver microsomes, pH 7.4, probe midazolam 10 μM (1′-hydroxylation)
# CYP2C9 = CYP2C9 (Homo sapiens, UniProt P11712); test: in vitro; settings: microsomes, pH 7.4
# Sequence of CYP2C9 (P11712 whole entry): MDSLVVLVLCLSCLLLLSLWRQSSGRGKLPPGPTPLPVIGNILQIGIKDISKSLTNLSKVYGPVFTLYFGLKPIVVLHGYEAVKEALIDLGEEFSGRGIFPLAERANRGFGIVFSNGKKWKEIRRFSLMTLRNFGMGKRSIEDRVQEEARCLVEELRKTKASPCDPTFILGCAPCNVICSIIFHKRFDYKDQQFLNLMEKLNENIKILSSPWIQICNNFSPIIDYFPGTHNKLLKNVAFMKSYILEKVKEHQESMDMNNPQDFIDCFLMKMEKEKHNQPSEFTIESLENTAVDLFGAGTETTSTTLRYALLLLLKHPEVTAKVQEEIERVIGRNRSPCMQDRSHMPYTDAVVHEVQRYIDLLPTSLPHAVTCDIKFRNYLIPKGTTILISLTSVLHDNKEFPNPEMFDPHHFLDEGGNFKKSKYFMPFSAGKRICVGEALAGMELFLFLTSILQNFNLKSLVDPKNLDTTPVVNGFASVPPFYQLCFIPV
# T3 sequence (P33261 whole entry): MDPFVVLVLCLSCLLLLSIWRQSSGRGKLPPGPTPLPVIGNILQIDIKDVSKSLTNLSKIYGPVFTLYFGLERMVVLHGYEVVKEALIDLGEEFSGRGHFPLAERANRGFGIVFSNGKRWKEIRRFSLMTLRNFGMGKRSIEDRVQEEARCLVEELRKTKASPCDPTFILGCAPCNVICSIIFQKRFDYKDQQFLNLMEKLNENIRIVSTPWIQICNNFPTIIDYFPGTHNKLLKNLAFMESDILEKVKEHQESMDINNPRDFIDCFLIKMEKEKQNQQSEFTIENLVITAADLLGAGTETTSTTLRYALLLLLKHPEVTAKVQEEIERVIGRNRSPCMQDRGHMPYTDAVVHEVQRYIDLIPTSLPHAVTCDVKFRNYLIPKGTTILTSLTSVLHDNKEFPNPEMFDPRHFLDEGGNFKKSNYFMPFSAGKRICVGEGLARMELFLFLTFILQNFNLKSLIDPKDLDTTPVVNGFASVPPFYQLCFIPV
# T2 sequence (P33261 whole entry): as above
# Sequence of CYP2D6 (P10635 whole entry): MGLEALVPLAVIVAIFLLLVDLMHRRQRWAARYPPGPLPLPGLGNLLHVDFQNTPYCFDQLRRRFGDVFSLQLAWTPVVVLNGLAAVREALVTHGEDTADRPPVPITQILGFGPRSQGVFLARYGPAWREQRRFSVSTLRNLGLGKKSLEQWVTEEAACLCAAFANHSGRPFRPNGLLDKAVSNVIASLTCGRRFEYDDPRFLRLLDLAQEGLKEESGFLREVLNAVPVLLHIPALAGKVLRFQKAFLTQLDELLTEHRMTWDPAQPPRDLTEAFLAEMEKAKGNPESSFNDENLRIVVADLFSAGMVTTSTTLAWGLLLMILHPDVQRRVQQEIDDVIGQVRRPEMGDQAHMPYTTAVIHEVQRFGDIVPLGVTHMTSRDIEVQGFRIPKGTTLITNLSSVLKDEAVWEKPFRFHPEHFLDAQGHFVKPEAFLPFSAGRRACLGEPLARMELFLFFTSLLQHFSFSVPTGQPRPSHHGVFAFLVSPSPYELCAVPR
structure (smiles),measurement,setting,value
CC(C)(C#N)c1cc(Cn2cncn2)cc(C(C)(C)C#N)c1 [anastrozole],Ki,2C9,8 to 10 µM
same,Ki,CYP1A2,8 to 10 µM
"N#Cc1ccc(C(O)c2ccc(C#N)cc2)cc1 [letrozole metabolite, 4,4′-methanol-bisbenzonitrile]",Effect on CYP2A6 activity,"CYP2A6 [1]; HLMs, 0–100 μM",lack of any effect
same,Mode of inhibition of CYP2C19,"CYP2C19 [2]; Dixon plots and enzyme inhibition models, HLMs and expressed CYP2C19",competitive
same,Ki,"CYP2C19 [2]; read-out: Ki values, CYP2C19, HLMs, HLMs (SD-101) 0.5 mg/ml, S-mephenytoin 10–75 μM, mean ± SE, competitive model",19.5 ± 0.5 µM
same,Ki,expressed CYP2C19 [3],4.5 ± 0.7 µM
same,Mode of inhibition of CYP2B6,"CYP2B6 [4]; Dixon plots and enzyme inhibition models, HLMs and expressed CYP2B6",competitive
same,Ki,"CYP2B6 [4]; read-out: Ki values, CYP2B6, HLMs, HLMs (HL-091499) 0.5 mg/ml, efavirenz 10–75 μM, mean ± SE, competitive model",12.9 ± 3.8 µM
same,Fraction of letrozole dose accounted for by the metabolite,[5]; human,over 60%
same,Ki,expressed CYP2B6,40.4 ± 14.6 µM
"N#Cc1ccc(C(c2ccc(C#N)cc2)n2cncn2)cc1 [letrozole, 4,4′-[(1H-1,2,4-triazol-1-yl)methylene] bis-benzonitrile]",Liver tissue concentration relative to plasma,[6],> sevenfold
same,IC50,expressed CYP2C19 [7],62.9 µM
same,Ki,"expressed CYP2C19 [7]; Ki values, expressed CYP2C19, expressed 2C19 52 pmol/ml, S-mephenytoin 10–75 μM, mean ± SE, competitive model",33.3 µM
same,"inhibition at 15 min, 100 μM",CYP2C8,< 20%
same,Ki at 15 min,CYP2A6 [8],4.6 ± 0.1 µM
same,Plasma protein binding,[9],60%
same,"inhibition at 30 min, 100 μM",CYP2D6,< 20%
same,IC50,expressed CYP2A6,12.5 µM
same,Ki,expressed CYP2A6,5 ± 2.4 µM
same,IC50,CYP2A6 [1],5.9 µM
same,Mode of inhibition of CYP2A6,"CYP2A6 [1]; Dixon plots and enzyme inhibition models, HLMs and expressed CYP2A6",competitive
same,Fold Ki for CYP2C19 above therapeutic plasma concentrations of letrozole,CYP2C19 [2]; human,over 40 fold
same,Mode of inhibition of CYP2C19,CYP2C19 [2]; microsomes,competitive
same,"Effect on the pharmacokinetics of known CYP substrates including warfarin, diazepam, and tamoxifen",[10],lack of letrozole's effect
same,"inhibition at 10 min, 100 μM",CYP2B6 [11],< 20%
same,"AUCI/AUCUI ratio expected in vivo, CYP2A6, total letrozole","CYP2A6 [12]; letrozole plasma concentration 0.5–1 μM (bound + unbound), Ki from HLMs",1.11–1.22
same,Predicted increase in exposure of CYP2A6 substrates (maximum),CYP2A6 [12]; predicted from in vitro Ki,11–22%
same,"AUCI/AUCUI ratio expected in vivo, CYP2A6, free letrozole",CYP2A6 [12]; Ki from HLMs,close to unity
same,"AUCI/AUCUI ratio expected in vivo, CYP2A6, free letrozole","CYP2A6 [12]; Ki from HLMs, listed as Letrozole",1.04–1.09
same,IC50,CYP2C19 [13],24.8 µM
same,Ki,CYP2C19 [13],42.2 ± 3.8 µM
same,Absolute bioavailability,[5],99.9%
same,Exposure at steady state higher than at a single dose,[5],28%
same,Radioactivity in plasma accounted by unchanged drug,[5]; following 14C-labeled letrozole (2.5 mg),Approximately 82%
same,Cmax,"[5]; read-out: Average maximum plasma concentration (Cmax) at steady state, women with breast cancer, 2.5 mg/day",~500 nM
same,Time dependence of inhibition of CYPs,CYP isoforms,not time dependent
same,"inhibition at 5 min, 100 μM",CYP3A,< 20%
same,"inhibition at 60 min, 100 μM",CYP2C9,< 20%
